These results are taken from ChEMBL document CHEMBL1158332, “Saniculoside N from Sanicula europaea L” (J Nat Prod, 1997).

The test system of this assay is Human immunodeficiency virus. Description: Inhibition of HIV reverse transcriptase at 200 ug/ml.
By inhibition is commonly meant how much of the control response was suppressed. As to `C/C=C(\C)C(=O)O[C@H]1[C@H](O)[C@@]2(CO)[C@H](CC1(C)C)C1=CC[C@@H]3[C@@]4(C)CC[C@H](O[C@@H]5O[C@H](C(=O)OCCC)[C@@H](O)[C@H](O[C@@H]6O[C@H](CO)[C@@H](O[C@@H]7OC[C@@H](O)[C@H](O)[C@H]7O)[C@H](O)[C@H]6O)[C@H]5O)C(C)(C)[C@@H]4CC[C@@]3(C)[C@]1(C)[C@@H](O)[C@H]2O`, the inhibition was 20.1%.

Take `O=C(/C=C/c1ccc(O)c(O)c1)O[C@H](Cc1ccc(O)c(O)c1)C(=O)O`: the inhibition was determined as 57.4%.

Molecule `O=C(O)/C=C/c1ccc(O)c(O)c1` yielded an inhibition of 0%.
